{"source": "patent US20200239412A1", "about": "“NEW DERIVATES OF DHAA WITH ELECTROSTATIC TUNING” (priority 2017, published 2020)", "key": {"[1]": {"target": "T1, 3R Shaker Kv channel (M356R/A359R) (Drosophila melanogaster, UniProt P08510, A359R/DEL6-46/M356R)", "T1 sequence (P08510 other isoform, or with tags, fused parts or gaps DEL6-46/M356R/A359R)": "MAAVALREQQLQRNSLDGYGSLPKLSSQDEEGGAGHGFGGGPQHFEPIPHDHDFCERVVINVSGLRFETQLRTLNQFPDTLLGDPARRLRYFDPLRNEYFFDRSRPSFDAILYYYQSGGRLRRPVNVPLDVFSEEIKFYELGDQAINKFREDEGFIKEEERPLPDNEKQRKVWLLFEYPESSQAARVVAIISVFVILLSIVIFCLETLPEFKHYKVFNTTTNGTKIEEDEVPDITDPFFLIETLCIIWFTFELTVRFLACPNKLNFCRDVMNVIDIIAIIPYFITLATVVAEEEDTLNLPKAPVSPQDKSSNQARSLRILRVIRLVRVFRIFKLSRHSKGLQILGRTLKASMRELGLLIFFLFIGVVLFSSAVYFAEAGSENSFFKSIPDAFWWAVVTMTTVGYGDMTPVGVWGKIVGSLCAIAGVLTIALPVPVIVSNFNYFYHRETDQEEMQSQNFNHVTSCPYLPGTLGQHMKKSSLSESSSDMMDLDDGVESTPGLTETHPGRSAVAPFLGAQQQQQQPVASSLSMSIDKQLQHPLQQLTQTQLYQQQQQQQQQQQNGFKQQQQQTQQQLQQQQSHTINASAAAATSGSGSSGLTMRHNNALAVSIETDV", "conditions": "cited from earlier work"}, "[2]": {"target": "T1, 3R Shaker Kv channel (M356R/A359R)", "assay": "in vitro", "type": "cell-based", "conditions": "for pKa at 100 μM: Drosophila, functional pH dependence, read-out: Functional pKa (pH where half of the maximum G(V) shift was achieved); for G(V) shift: mean", "excerpt": "(§1) Experiments were made with the Shaker H4 channel incapable of fast N-type inactivation due to a Δ6-46 deletion, referred to as the wt Shaker Kv channel. The 3R Shaker Kv channel with two additional positively charged arginines (M356R/A359R) in the extracellular end of S4, was also used.\n(§2) For the Shaker channels, Bluescript II KS(+) plasmid was linearized with HindIII and synthesis of cRNA were made with the T7 mMessage mMachine kit (Ambion, Austin, Tex.). Point mutations around S4, on the Shaker Kv channel, were introduced using QuickChange Site-Directed Mutagenesis Kit (Agilent Technologies, Santa Clara, Calif.) and sequencing were used for verification.\n(§3) 50 nl cRNA was injected into Xenopus laevis oocytes using a Nanoject injector (Drummond Scientific, Broomall, Pa.) and the oocytes were stored at 8° C. in a modified Barth's solution (MBS) before experiments (16° C., M-channel, 1-2 days). The MBS contained (in mM): 88 NaCl, 1 KCl, 2.4 NaHCO3, 15 HEPES, 0.33 Ca(NO3)2, 0.41 CaCl2), and 0.82 MgSO4, pH was adjusted to 7.5 by NaOH and the MBS was supplemented sodium pyruvate (2.5 mM). All animal experiments were approved by the Linkoping's local Animal Care and Use Committee.\n(§4) Currents were measured 1-6 days after cRNA injection using the two-electrode voltage clamp technique (GeneClamp 500B amplifier, Axon instruments). Signals were low pass filtered at 5 kHz and digitized by a Digidata 1440A converter (Molecular Devices, Sunnyvale, Calif.). The amplifiers leak compensation was used and Clampex 10.2 software (Molecular Devices) was used to obtain data and create voltage protocols. The extracellular control solution contained (in mM): 1 KCl, 88 NaCl, 0.8 MgCl2, 0.4 CaCl2) and 15 HEPES. pH were adjusted with NaOH. Electrode pipettes were made from borosilicate glass capillaries (Harvard apparatus, Kent, UK) using a two stage electrode puller (Narishige, Tokyo, Japan) and resistance was between 0.5-2.0 MO once filled with 3 M KCl solution. In the voltage protocol for the wt and 3R Shaker channel, holding potential was set to −80 mV and steady-state currents were measured at voltages between −80 and +50 mV (wt Shaker Kv channel) or +70 mV (3R Shaker Kv channel), using 5 mV increments, 100 ms. […] Physiol. 143, 173-182 (2014). For the M-channel, holding potential was set to −100 mV, test-voltages were measured between −120 and +50 mV (10 mV increments for 2 s) and tail currents were measured at −30 mV.\n(§5) Control solution was perfused to the recording chamber (0.5 ml/min) and the test solution was added manually with a syringe, in a volume large enough to replace the control solution manifold. Resin acids compounds were dissolved in DMSO (100 mM) and stored at −20° C. Just prior to experiment the compound was diluted to desired concentration in control solution. Recovery was measured after continuously perfusion of control solution, maximum 5 min. All recordings were made with the perfusion off. Experiments were carried out in room temperature (20-23° C.) and chemicals were purchased from Sigma Aldrich if not stated otherwise.\n(§6) Currents were leak subtracted and steady-state currents were measured 80-86 ms after onset of the test voltages (Clampfit 10.5, Molecular Devices). K conductance, GK, was calculated using,\n(§7) where IK is the steady-state current, V the absolute membrane voltage and VK the reversal potential for K ions (−80 mV), and the following Boltzmann curve was used to fit the data:\n(§8) GK(V)=A/(1+exp((V1/2−V)/s)^n (2)\n(§9) where A is the amplitude of the curve, V1/2 the midpoint when n=1, s the slope and n an exponent for better curve fitting, set to n=4. The voltage shift was calculated at 10% of maximal conductance in control curve.\n(§10) To quantify the concentration dependence or pH dependence of the GK(V) shifts the following equation was used:\n(§11) ΔVG(V)=ΔVMAX/(1+c1/2/c), (3)"}, "[3]": {"target": "wt Shaker Kv channel (Shaker H4, Δ6-46) (Drosophila melanogaster, UniProt P08510, DEL6-46)", "sequence (P08510 other isoform, or with tags, fused parts or gaps DEL6-46)": "as the sequence (P08510 other isoform, or with tags, fused parts or gaps DEL6-46/M356R/A359R) above, with R315M, R318A counted along it", "assay": "Two-electrode voltage clamp, G(V) shift on wt Shaker Kv channel expressed in Xenopus laevis oocytes", "type": "cell-based", "excerpt": "as §1, §2, §3, §4, §5, §6, §7, §8, §9, §10, §11"}, "hKv7.2/Kv7.3 (M-channel)": {"target": "T2, hKv7.2/Kv7.3 (M-channel) (Homo sapiens, UniProt O43525+O43526)", "T2 construct": "expressed in transfected cells; host or cells: Xenopus laevis oocytes (cRNAs mixed 1:1)", "assay": "Two-electrode voltage clamp, G(V) shift on human M-channel expressed in Xenopus laevis oocytes", "type": "cell-based", "description": "Experiments were also made with the human hKv7.2/Kv7.3, referred to as the M-channel. cRNAs were mixed in a 1:1 molar ratio before injection into oocytes. hKv7.2 [GenBank Acc. No. NM_004518]. hKv7.3 [GenBank Acc. No NM_004519].\nas §3, §4, §5\nFor the M channel tail currents were measured 18 ms after onset and then plotted against the test voltage. The Boltzmann curve (Eq. 2) was used to fit data and the slope was set to shared value between control and test compound. V1/2 was used to calculate the GK(V) shift.\nas §10, §11\nwhere ΔVG(v) is the voltage shift, ΔVMAX is the amplitude of the curve, c the concentration, c1/2 the concentration at which half maximum response occur. For compounds with no pH dependence the data was fitted with a horizontal line, with the slope set to 0."}, "R362Q Shaker Kv channel": {"target": "R362Q Shaker Kv channel (Drosophila melanogaster, UniProt P08510, DEL6-46/R362Q)", "sequence (P08510 other isoform, or with tags, fused parts or gaps DEL6-46/R362Q)": "as the sequence (P08510 other isoform, or with tags, fused parts or gaps DEL6-46/M356R/A359R) above, with R315M, R318A, R321Q counted along it", "assay": "G(V) shift on Shaker Kv channel S4 mutant R362Q compared with wt R362", "type": "cell-based", "conditions": "100 μM, pH 7.4, FIG. 9D", "description": "as §2\nCurrents were measured 1-6 days after cRNA injection using the two-electrode voltage clamp technique (GeneClamp 500B amplifier, Axon instruments). Signals were low pass filtered at 5 kHz and digitized by a Digidata 1440A converter (Molecular Devices, Sunnyvale, Calif.). The amplifiers leak compensation was used and Clampex 10.2 software (Molecular Devices) was used to obtain data and create voltage protocols. The extracellular control solution contained (in mM): 1 KCl, 88 NaCl, 0.8 MgCl2, 0.4 CaCl2) and 15 HEPES. pH were adjusted with NaOH. […] In the voltage protocol for the wt and 3R Shaker channel, holding potential was set to −80 mV and steady-state currents were measured at voltages between −80 and +50 mV (wt Shaker Kv channel) or +70 mV (3R Shaker Kv channel), using 5 mV increments, 100 ms. […] For the M-channel, holding potential was set to −100 mV, test-voltages were measured between −120 and +50 mV (10 mV increments for 2 s) and tail currents were measured at −30 mV. […]"}, "[4]": {"conditions": "pH 7.4, concentration-response of G(V) shift, read-out: c1/2 (half-maximal concentration)"}}, "note": "Several values for one entry are separate records, joined by “and”; a condition that tells them apart may be missing. Equal values may be shown once. Where a name gives a salt, the structure may show the parent alone. Read-outs that look alike come from different tables or passages of the source.", "data": [{"smiles": "CC(C)c1ccc2c(c1)CC[C@H]1[C@](C)(C(=O)O)CCC[C@]21C", "note": "[DHAA, dehydroabietic acid]", "values": [{"measurement": "EC50", "setting": "[1]; pH 7.4, data from Ottosson et al. Sci. Rep. 5, 13278 (2015), read-out: c1/2 (half-maximal concentration)", "result": 98, "unit": "µM"}, {"measurement": "pKa at 100 μM", "setting": "[2]", "result": 7.2}]}, {"smiles": "C[C@@]1(C(=O)O)CCC[C@]2(C)c3cc(Cl)c(Cl)c(Cl)c3CCC12", "note": "(some centres unmarked) [Wu50, reference compound]", "values": [{"measurement": "EC50", "setting": "[1]; read-out: c1/2 (half-maximal concentration), pH 7.4, data from Ottosson et al. Sci. Rep. 5, 13278 (2015)", "result": "37 µM and 36 µM"}, {"measurement": "Increase of affinity compared to DHAA (factor)", "setting": "[2]; pH 7.4", "result": 2.7}, {"measurement": "Increase of amplitude/efficacy compared to DHAA (factor)", "setting": "[2]; pH 7.4", "result": 1.7}]}, {"smiles": "CC(C)c1ccc2c(c1)CC[C@H]1[C@](C)(COS(=O)(=O)O)CCC[C@]21C", "note": "[Wu161, ((1R,4aS,10aR)-7-isopropyl-1,4a-dimethyl-1,2,3,4,4a,9,10,10a-octahydrophenanthren-1-yl)methyl Hydrogen Sulfate]", "values": [{"measurement": "EC50", "setting": "[3]; [4]", "result": 44, "unit": "µM"}, {"measurement": "EC50", "setting": "hKv7.2/Kv7.3 (M-channel); concentration-response of G(V) shift, read-out: c1/2 (half-maximal concentration)", "result": "41.8 µM and 42 µM"}, {"measurement": "EC50", "setting": "[2]; [4]", "result": "36 µM and 37 µM"}, {"measurement": "Effect on R362Q compared with wt R362", "setting": "R362Q Shaker Kv channel", "result": "about the same effects"}]}, {"smiles": "CC(C)c1ccc2c(c1)CCC1[C@](C)(CCC(=O)O)CCC[C@]21C", "note": "(stereo partly drawn) [Wu179, 3-((1S,4aS)-7-isopropyl-1,4a-dimethyl-1,2,3,4,4a,9,10,10a-octahydrophenanthren-1-yl)propanoic Acid]", "values": [{"measurement": "G(V) shift", "setting": "[3]; pH 10, 100 μM, mean", "result": "−3.83", "unit": "mV"}, {"measurement": "G(V) shift", "setting": "hKv7.2/Kv7.3 (M-channel); pH 7.4, 100 μM, mean", "result": "−6.68", "unit": "mV"}, {"measurement": "pKa at 100 μM", "setting": "[2]", "result": 7.5}, {"measurement": "G(V) shift", "setting": "[2]; pH 5.5, 100 μM", "result": 2.80, "unit": "mV"}, {"measurement": "G(V) shift", "setting": "[2]; pH 6.5, 100 μM", "result": "−3.23", "unit": "mV"}, {"measurement": "G(V) shift", "setting": "[2]; pH 7.4, 100 μM", "result": "−10.43", "unit": "mV"}, {"measurement": "G(V) shift", "setting": "[2]; pH 9, 100 μM", "result": "−16.63", "unit": "mV"}, {"measurement": "G(V) shift", "setting": "[2]; pH 10, 100 μM", "result": "−22.83", "unit": "mV"}]}]}
